{"source": "patent US8772237B2", "about": "“Compositions and methods for counteracting effects of reactive oxygen species and free radicals” (Ischemix, Inc., priority 1999, dated 2014)", "key": {"[1]": {"system": "middle cerebral artery (MCA) temporary occlusion stroke model", "assay": "Temporary MCA occlusion stroke model", "assay_type": "in vivo, Sprague-Dawley rats", "description": "The in vivo neuroprotective effects of CMX-9236 were investigated in both temporary and permanent occlusion stroke models in Sprague-Dawley rats using an intraluminal suture of the middle cerebral artery (MCA) occlusion method (Zea Longa et al., Stroke, 20: 84 (1989)). Briefly, a 4-0 silicone-coated suture was inserted through the right common carotid artery to block the MCA orifice. In the temporary model, CMX-9236 (6.2 mg/kg/hr) or vehicle was administered via the femoral vein at 30 minutes after the start of a 2-hour occlusion for a 4-hour continuous infusion; the rats were then reperfused by withdrawing the suture at […] after the MCA occlusion. All experiments were performed in a blinded and randomized manner, and rectal temperature was maintained at 37° C. The animals were sacrificed, and their brains were removed, sectioned into six 2-mm-thick coronal slices and stained with 2,3,5-triphenyltetrazolium chloride solution (Bederson et al., Stroke, 17:1304 (1986)) to visualize the extent of brain damage for the calculation of the corrected hemispheric infarct volumes (Nagasawa and Kogure, Stroke, 20:1037 (1989); Li et al., J. Cereb. Blood Flow Metab., 17:1132 (1997)). […] This represents a significant reduction of infarct size (35±5%, p=0.01, student t-test) for the CMX-9236-treated group in the temporary occlusion model. There was also a 58+11% improvement in the neurological scoring (Minematsu et al., Neurology, 42:235 (1992)) for the peptide-treated group versus controls at the end of 24 hours."}, "[2]": {"system": "catalase (CAT) protein", "assay": "Western immunoblot of CAT protein in rat primary cortical cultures", "assay_type": "cell-based", "details": "Dose 67 pmol/ml, 5 hours at 37° C.", "description": "Tissue culture experiments were carried out using primary cultures of rat brain cortical cells as previously described above in Example 2. Primary cultures from embryonic rat brain isolated at E-21 (21 day embryos) and incubated for five hours with various doses: 1, 10, 100 ng/ml of CMX-99672. Cytoplasmic proteins were isolated and analyzed for upregulation of SOD and CAT by Western immunoblots as described above. […] The Western blot was scanned to quantify the fold-increase in SOD production in cell cultures treated with the CMX-99672 peptide compound.\nRepresentative peptide compounds were tested at various doses and compared for their ability to upregulate expression of genes for SOD and/or CAT in rat primary cortical cultures basically as described above. Cultures were incubated with a peptide compound for 5 hours at 37° C. Cytoplasmic protein fractions were prepared as described above. Cytoplasmic proteins were separated by gel electrophoresis and analyzed by Western immunoblots using antisera to SOD and CAT, respectively (Rockland, Inc., Gilbertsville, Pa.)."}, "[3]": {"system": "middle cerebral artery (MCA) permanent occlusion stroke model", "assay": "Permanent MCA 24-hour occlusion stroke model", "assay_type": "in vivo, Sprague-Dawley rats", "details": "Dose 0.05 mg/hr"}}, "note": "Ends that are not written are not given here."}
{"sequence": "KKDGDGDFAIDAPE [CMX-9236, uncapped peptide]", "values": [{"measurement": "corrected infarct volume (mean±S.E.)", "setting": "[1]; 6.2 mg/kg/hr i.v., 4-hour infusion from 30 min after start of occlusion, n=10", "result": "117.3±17", "unit": "mm^3"}, {"measurement": "reduction of infarct size vs vehicle", "setting": "[1]; 6.2 mg/kg/hr, p=0.01", "result": "35±5", "unit": "%"}, {"measurement": "improvement in neurological scoring vs controls", "setting": "[1]; at the end of 24 hours", "result": "58+11%"}, {"measurement": "CAT", "setting": "[2]", "result": 652, "unit": "% Control"}, {"measurement": "Percent Neurological Rescue", "setting": "[3]", "result": "35 ± 8", "unit": "%"}, {"measurement": "Percent Rescue (percent decrease in infarct size vs vehicle controls)", "setting": "[3]", "result": "23 ± 7", "unit": "%"}]}
